# Legend:
# AML12 Cell Line = experiment: Transfection of AML12 Cell Line with FLuc mRNA LNPs (ONE-Glo EX luciferase signal); assay type: cell-based; conditions: 200 ng Fluc mRNA-LNP, 24 hours
# Procedure: (§1) mRNA encapsulated lipid nanoparticles (mRNA LNPs) were formulated using microfluidic mixing with a PNI Ignite instrument. Briefly, lipids (ionizable: structural: helper: PEG) were dissolved in ethanol and mixed with and aqueous solution of mRNA. These mRNA-loaded dispersions were then neutralized via a buffer exchange with a pre-determined buffer overnight. Afterwards, formed LNPs were concentrated with Amicon filter centrifugation, filtered, concentration of mRNA determined through a ribogreen assay, and frozen at −80° C. until use.
# (§2) Cell lines were grown to confluence in T75 flasks using complete media of DMEM-F12 for AML12 and DMEM for both B16F10 and MC38.K. Cells were plated in a white 96 flat-well plate (AML12=20,000 cells/well, B16F10 and MC38.K=5,000 cells/well) with their respected media. Lipid nanoparticles were first diluted to 50 μg/ml using Opti-MEM and pre-incubated with mouse serum for 30 minutes to give an LNP concentration of 8 μg/ml. Cell media was replaced with Opti-MEM and LNPs were added to cells (200 ng of mRNA-LNP), placed back in the incubator, and allowed to transfect for 24 hours. Afterwards, 100 μl of Promega's ONE-Glo™ EX Luciferase Assay System or Promega's CellTiter-Glo® Luminescent Cell Viability Assay was added and mixed in their respective wells, followed by recording luminescence signals on a Thermo Scientific Varioskan LUX multimode microplate reader. The results are shown in FIG. 1, FIG. 2, FIG. 3, FIG. 4, FIG. 5, FIG. 6, FIG. 10, FIG. 11, and FIG. 21.
# B16F10 Cell Line = experiment: Transfection of B16F10 Cell Line with FLuc mRNA LNPs (ONE-Glo EX luciferase signal); assay type: cell-based; conditions: 200 ng Fluc mRNA-LNP, 24 hours
# Procedure: as §1, §2
# MC38.K Cell Line = experiment: Transfection of MC38.K Cell Line with FLuc mRNA LNPs (ONE-Glo EX luciferase signal); assay type: cell-based; conditions: 200 ng Fluc mRNA-LNP, 24 hours; for Total Luciferin Signal (RLU) In Vitro - MC38.K: Table 4
# Procedure: as §1, §2
# Liver = experiment: Ex-vivo luminescence signal from liver after IV Fluc mRNA LNPs in CD1 mice (IVIS); conditions: tail vein 1.0 mg/kg Day 0 and Day 2, imaging 18 hours after second dose, Table 4
SMILES,Total Luciferin Signal (RLU) In Vitro - AML12 (AML12 Cell Line; Table 4) [RLU],Total Luciferin Signal (RLU) In Vitro - B16F10 (B16F10 Cell Line; Table 4) [RLU],Total Luciferin Signal (RLU) In Vitro - MC38.K (MC38.K Cell Line) [RLU],Total Liver Tissue Luciferin Signal (Photons/s) Ex-vivo - CD1 (Liver) [Photons/s],Total Luciferin Signal (RLU) In Vitro - AML12 (AML12 Cell Line; Table 5) [RLU],Total Luciferin Signal (RLU) In Vitro - B16F10 (B16F10 Cell Line; Table 5) [RLU],Total Luciferin Signal (RLU) In Vitro-MC38 (MC38.K Cell Line; Table 5) [RLU]
CCCCCCCCC(CCCCCCCC)OC(=O)CCCCCCCN(CCO)CCCCCC(=O)OCCCCCCCCC(C)C [Compound 1],1.96E+06,6.92E+06,7.83E+06,9.00E+09,–,–,–
CCCCCCCCC(CCCCCCCC)OC(=O)CCCCCCCN(CCO)CCCCCCCC(=O)OCCCCCCCCC(C)C [Compound 2],4.76E+06,5.94E+06,4.24E+06,6.20E+09,–,–,–
CCCCCCCCC(CCCCCCCC)OC(=O)CCCCCCCN(CCCCCCCC(=O)OCCCCCCCCC(C)C)CCOC(=O)CCCN(C)C [Compound 3],3.82E+06,4.58E+06,2.99E+06,8.57E+07,–,–,–
CCCCCCCCC(CCCCCCCC)C(=O)OCCCCCCCN(CCO)CCCCCCCC(=O)OCCCCCCCCC(C)C [Compound 4],1.72E+06,2.16E+06,3.54E+06,1.06E+09,–,–,–
CCCCCCCCC(CCCCCCCC)C(=O)OCCCCCCCN(CCO)CCCCCC(=O)OCCCCCCCCC(C)C [Compound 6],8.42E+05,5.77E+05,9.66E+05,2.10E+09,–,–,–
CCCCCCCCC(CCCCCCCC)C(=O)OCCCCCCCN(CCCCCC(=O)OCCCCCCCCC(C)C)CCOC(=O)CCCN(C)CCO [Compound 8],1.43E+05,9.69E+05,3.40E+06,2.13E+08,–,–,–
CCCCCCCCC(CCCCCCCC)C(=O)OCCCCCCCN(CCCCCC(=O)OCCCCCCCCC(C)C)CCOC(=O)CCCN(C)C [Compound 9],6.57E+05,3.27E+06,1.23E+06,4.41E+07,–,–,–
CCCCCCCCC(CCCCCCCCF)OC(=O)CCCCCCCN(CCO)CCCCCCCC(=O)OCCCCCCCCC(C)C (centres unmarked) [Compound 10],7.51E+05,4.57E+05,6.38E+05,8.34E+09,–,–,–
CCCCCCCCC(CCCCCCCC)OC(=O)CCCCCCCN(CCO)CCCCCCCOC(=O)CCCCCCCCC(C)C [Compound 11],4.29E+06,7.92E+06,7.64E+06,4.88E+09,–,–,–
CCCCCCCCC(CCCCCCCC)OC(=O)CCCCCCCN(CCCCCCCOC(=O)CCCCCCCCC(C)C)CCOC(=O)CCCN(C)C [Compound 12],7.43E+05,2.79E+06,4.07E+06,4.15E+07,–,–,–
CCCCCCCCC(CCCCCCCC)C(=O)OCCCCCCCN(CCO)CCCCCCCOC(=O)CCCCCCCCC(C)C [Compound 14],2.94E+06,5.12E+06,4.71E+06,1.93E+09,–,–,–
CCCCCCCCC(CCCCCCCC)OC(=O)CCCCCN(CCO)CCCCCC(=O)OCCCCCCCCCCC(C)C [Compound 16],1.67E+06,7.67E+06,2.39E+06,5.11E+09,–,–,–
CCCCCCCCCCCOC(=O)CCCCCN(CCO)CCCCCCCC(=O)OC(CCCCCCCC)CCCCCC(C)C (centres unmarked) [Compound 18],2.99E+06,2.65E+06,–,4.74E+09,–,–,–
CCCCCCCCCCCOC(=O)CCCCCN(CCCCCCCC(=O)OC(CCCCCCCC)CCCCCC(C)C)CCOC(=O)CCCN(C)C (centres unmarked) [Compound 19],6.91E+05,1.27E+06,1.90E+06,1.28E+08,–,–,–
CCCCCCCCC(CCCCCCCC)C(=O)OCCCCCCCN(CCO)CCCCCCCOC(=O)CCCCCCCC=C(C)C [Compound 20],7.65E+05,4.65E+05,7.88E+05,7.61E+09,–,–,–
CCCCCCCCCCCOC(=O)CCCCCN(CCO)CCCCCCCC(=O)OC(CCCCCCCC)CCCCCCCF (centres unmarked) [Compound 24],5.98E+05,3.37E+05,7.60E+05,1.04E+10,–,–,–
CCCCCCCCCOC(=O)CCCCCN(CCO)CCCCCCCC(=O)OC(CCCCCCCC)CCCCCCCF (centres unmarked) [Compound 25],1.09E+05,4.43E+05,9.18E+05,2.05E+09,–,–,–
CCCCCCCCC(CCCCCCCF)OC(=O)CCCCCCCN(CCO)CCCCCC(=O)OCCCCCCC(C)C (centres unmarked) [Compound 26],1.95E+05,1.73E+05,2.33E+05,5.54E+09,–,–,–
CCCCCCCCCC(=O)OCCCCCCCN(CCO)CCCCCCCOC(=O)C(CCCCCCCC)CCCCCCCF (centres unmarked) [Compound 27],3.02E+05,6.19E+04,2.37E+05,5.60E+09,–,–,–
CCCCCCCCC(CCCCCCCF)OC(=O)CCCCCCCN(CCO)CCCCCC(=O)OC(CCCCCCCC)CCCCCCCC (centres unmarked) [Compound 29],8.52E+04,8.63E+05,2.97E+05,7.57E+09,–,–,–
CCCCCCCCCOC(=O)CCCCCCCN(CCCO)CCCCCCCC(=O)OC(CCCCCCCC)CCCCCCCCF (centres unmarked) [Compound 30],8.06E+05,1.16E+05,4.65E+05,1.53E+10,–,–,–
CCCCCCCCCC(=O)OCCCCCCCN(CCO)CCCCCCCC(=O)OC(CCCCCCCC)CCCCCCCCF (centres unmarked) [Compound 32],1.53E+05,2.09E+05,4.43E+05,3.13E+09,–,–,–
CCCCCCCCCCCOC(=O)CCCCCN(CCO)CCCCCCCC(=O)OC(CCCCCCCC)CCCCCCCCF (centres unmarked) [Compound 33],1.38E+05,4.80E+05,1.07E+06,2.93E+09,–,–,–
CCCCCCCCCOC(=O)CCCCCN(CCO)CCCCCCCC(=O)OC(CCCCCCCC)CCCCCCCCF (centres unmarked) [Compound 34],1.56E+05,238754.8,4.19E+05,1.89E+09,–,–,–
CCCCCCCCCCCCN(CCO)CCCCCCCC(=O)OC(CCCCCCCC)CCCCCCCC [Compound 41],3.63E+06,2.52E+06,–,8.12E+09,–,–,–
"CCCCCCCC/C=C\CCCCCCC1CN(CCO)CC(CCCCCC(=O)OC(CCCCCCCC)CCCCCCC(C)C)O1 (centres unmarked) [Compound 98, 2-methylheptadecan-9-yl (Z)-6-(6-(hexadec-7-en-1-yl)-4-(2-hydroxyethyl)morpholin-2-yl)hexanoate]",–,–,–,–,4.38E+04,1.27E+05,7.95E+04
